The target in the experiment is T1, IRAK-4 enzyme (Homo sapiens, UniProt Q9NWZ3).
T1 construct: purchased Millipore, USA
T1 sequence (Q9NWZ3 1-460): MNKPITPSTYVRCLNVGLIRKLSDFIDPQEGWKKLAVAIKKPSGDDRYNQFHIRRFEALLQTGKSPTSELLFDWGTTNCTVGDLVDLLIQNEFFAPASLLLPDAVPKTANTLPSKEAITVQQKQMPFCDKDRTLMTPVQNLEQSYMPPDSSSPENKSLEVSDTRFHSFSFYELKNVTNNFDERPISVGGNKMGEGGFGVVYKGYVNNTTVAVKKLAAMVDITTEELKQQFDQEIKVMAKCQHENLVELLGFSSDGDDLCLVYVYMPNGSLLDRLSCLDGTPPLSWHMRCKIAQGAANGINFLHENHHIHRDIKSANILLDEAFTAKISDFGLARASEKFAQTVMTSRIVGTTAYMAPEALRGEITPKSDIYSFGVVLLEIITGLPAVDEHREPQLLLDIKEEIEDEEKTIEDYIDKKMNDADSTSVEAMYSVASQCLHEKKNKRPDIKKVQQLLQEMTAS
The experiment in a line: IRAK-4 Biochemical Assay (TR-FRET). The settings on record: recombinant IRAK-4 kinase, 20 μM ATP; for inhibition at 0.1 µM: 0.1 μM compound; for inhibition at 1 µM: 1 μM compound. The method, then: Compounds were tested for their potential to inhibit IRAK-4 enzyme in a TR-FRET assay using recombinant IRAK-4 kinase from Millipore, USA. The assay buffer was 50 mM Tris-HCl pH 7.5, 20 mM MgCl2, 1 mM EGTA, 2 mM DTT, 3 mM MnCl2 and 0.01% Tween 20.5 ng of IRAK-4 kinase was used for the assay. After pre-incubation of enzyme with test compound for 30 minutes at room temperature, a substrate mixture containing 100 nM Biotin Histone H3 (Millipore, USA) and 20 μM ATP (Sigma, USA) was added and the reaction was incubated for 30 min. Post incubation, the reaction was stopped by the addition of stop mix containing 40 mM EDTA, 1 nM of Europium-Anti-Phospho-Histone H3 (Ser10) antibody (Perkin Elmer, USA) and 20 nM SureLight Allophycocyanin-Streptavidin (Perkin Elmer, USA). The fluorescence emission at 615 nm and 665 nm were measured at an excitation of 340 nm and the percent inhibition was estimated from the ratio of the fluorescence intensities [(F665/F615)×10000].
The compounds of the present invention were screened in the above mentioned assay and the percent inhibition data is summarized in the Table 1.
Background: In TR-FRET formats the signal depends on donor and acceptor labels being close together.

Results on 24 compounds are retold here after patent US20180201609A1 (AURIGENE DISCOVERY TECHNOLOGIES LIMITED, priority 2015, published 2018).

SMILES strings stand for the structures. Where a name gives a salt, the structure may show the parent alone.

Usually inhibition stands for the drop in the measured response relative to a control, in per cent. For `COCCn1ncc2cc(NC(=O)c3coc(-c4ccnc(C)c4)n3)c(N3CCC(O)CC3)nc21` [Example 25, N-(6-(4-hydroxypiperidin-1-yl)-1-(2-methoxyethyl)-1H-pyrazolo[3,4-b]pyridin-5-yl)-2-(2-methylpyridin-4-yl)oxazole-4-carboxamide], the inhibition at 0.1 µM came to 67% and the inhibition at 1 µM came out at 97%.

On to `Cc1cc(-c2nc(C(=O)Nc3cc4c(C)n(C)nc4nc3N3CCCCC3)co2)ccn1` [Example 26, N-(2,3-dimethyl-6-(piperidin-1-yl)-2H-pyrazolo[3,4-b]pyridin-5-yl)-2-(2-methylpyridin-4-yl)oxazole-4-carboxamide], for which the inhibition at 0.1 µM turned out to be 94% and the inhibition at 1 µM was determined as 97%.

With `Cc1c2cc(NC(=O)c3coc(-c4ccnc(N)c4)n3)c(N3CCCCC3)nc2nn1C` [Example 27, 2-(2-aminopyridin-4-yl)-N-(2,3-dimethyl-6-(piperidin-1-yl)-2H-pyrazolo[3,4-b]pyridin-5-yl)oxazole-4-carboxamide], the inhibition at 0.1 µM amounted to 97% and the inhibition at 1 µM worked out at 98%.

On to `Cc1cc(-c2nc(C(=O)Nc3cc4c(C)nn(C)c4nc3N3CCC(CO)CC3)co2)ccn1` [Example 28, N-(6-(4-(hydroxymethyl)piperidin-1-yl)-1,3-dimethyl-1H-pyrazolo[3,4-b]pyridin-5-yl)-2-(2-methylpyridin-4-yl)oxazole-4-carboxamide], for which the inhibition at 0.1 µM is 89% and the inhibition at 1 µM stood at 97%.

In the case of `Cc1nn(C)c2nc(N3CCC(CO)CC3)c(NC(=O)c3coc(-c4ccnc(N)c4)n3)cc12` [Example 29, 2-(2-aminopyridin-4-yl)-N-(6-(4-(hydroxymethyl)piperidin-1-yl)-1,3-dimethyl-1H-pyrazolo[3,4-b]pyridin-5-yl)oxazole-4-carboxamide], the inhibition at 0.1 µM stood at 97% and the inhibition at 1 µM came to 99%.

For the compound `COCCn1nc(C)c2cc(NC(=O)c3coc(-c4ccnc(N)c4)n3)c(N3CCC(CO)CC3)nc21` [Example 30, 2-(2-aminopyridin-4-yl)-N-(6-(4-(hydroxymethyl)piperidin-1-yl)-1-(2-methoxyethyl)-3-methyl-1H-pyrazolo[3,4-b]pyridin-5-yl)oxazole-4-carboxamide], the inhibition at 0.1 µM was found to be 86% and the inhibition at 1 µM was determined as 99%.

As to `CN1CCN(CCn2ncc3cc(NC(=O)c4coc(-c5ccnc(N)c5)n4)c(N4CCC(O)CC4)cc32)CC1` [Example 31, 2-(2-aminopyridin-4-yl)-N-(6-(4-hydroxypiperidin-1-yl)-1-(2-(4-methylpiperazin-1-yl)ethyl)-1H-indazol-5-yl)oxazole-4-carboxamide hydrochloride], the inhibition at 0.1 µM was found to be 99% and the inhibition at 1 µM worked out at 99%.

For `O=C(Nc1cc2cnn(C3CCNCC3)c2cc1C1CC1)c1cccc(N2CCC(O)C2)n1` (stereo not drawn) [Example 32, N-(6-cyclopropyl-1-(piperidin-4-yl)-1H-indazol-5-yl)-6-(3-hydroxypyrrolidin-1-yl)picolinamide hydrochloride], the inhibition at 0.1 µM is 19% and the inhibition at 1 µM amounted to 80%.

For the compound `Cn1ncc2cc(NC(=O)c3cccc(N4CCC(O)C4)n3)c(N3CCCCC3)cc21` (stereo not drawn) [Example 33, 6-(3-hydroxypyrrolidin-1-yl)-N-(1-methy-6-(piperidin-1-yl)-1H-indazol-5-yl)picolinamide], the inhibition at 0.1 µM is 43% and the inhibition at 1 µM stood at 81%.

Consider `C=CCOCC1CCN(c2cc3c(cc2NC(=O)c2coc(-c4cccc(N)n4)n2)c(C)nn3C)CC1` [Example 34], for which the inhibition at 0.1 µM is 25% and the inhibition at 1 µM amounted to 46%.

`CCOCC1CCN(c2cc3c(cc2NC(=O)c2coc(-c4ccnc(N)c4)n2)c(C)nn3C)CC1` [Example 35, 2-(2-aminopyridin-4-yl)-N-(6-(4-(ethoxymethyl)piperidin-1-yl)-1,3-dimethyl-1H-indazol-5-yl)oxazole-4-carboxamide]: the inhibition at 0.1 µM was 95% and the inhibition at 1 µM worked out at 96%.

Regarding `Cc1nn(C)c2cc(N3CCC(COCC4CC4)CC3)c(NC(=O)c3coc(-c4ccnc(N)c4)n3)cc12` [Example 36, 2-(2-aminopyridin-4-yl)-N-(6-(4-((cyclopropylmethoxy)methyl)piperidin-1-yl)-1,3-dimethyl-1H-indazol-5-yl)oxazole-4-carboxamide], the inhibition at 0.1 µM is 81% and the inhibition at 1 µM came to 85%.

For the compound `Cc1nn(C)c2cc(N3CCC(CO)CC3)c(NC(=O)c3cccc(-c4ccc(N)nc4)n3)cc12` [Example 37, 6′-amino-N-(6-(4-(hydroxymethyl)piperidin-1-yl)-1,3-dimethyl-1H-indazol-5-yl)-[2,3′-bipyridine]-6-carboxamide hydrochloride], the inhibition at 0.1 µM came to 14% and the inhibition at 1 µM worked out at 75%.

As for `Cc1nn(C)c2cc(N3CCC(CO)CC3)c(NC(=O)c3coc(-c4cc(N)ncc4Cl)n3)cc12` [Example 38, 2-(2-amino-5-chloropyridin-4-yl)-N-(6-(4-(hydroxymethyl)piperidin-1-yl)-1,3-dimethyl-1H-indazol-5-yl)oxazole-4-carboxamide hydrochloride], the inhibition at 0.1 µM is 50% and the inhibition at 1 µM turned out to be 90%.

As to `Cc1nn(C)c2cc3c(cc12)NC(=O)c1coc(n1)-c1ccnc(c1)NCCCOCC1CCN3CC1` [Example 39, (Z)-51,53-dimethyl-51H-8-oxa-4,12-diaza-2(2,4)-oxazola-5(5,6)-indazola-1(4,2)-pyridina-6(1,4)-piperidinacyclododecaphan-3-one], the inhibition at 0.1 µM is 4% and the inhibition at 1 µM turned out to be 72%.

Regarding `Cn1cc2cc(NC(=O)c3ccc(N4CCC(O)C4)cn3)c(N3CCCCC3)nc2n1` (stereo not drawn) [Example 40, 5-(3-hydroxypyrrolidin-1-yl)-N-(2-methyl-6-(piperidin-1-yl)-2H-pyrazolo[3,4-b]pyridin-5-yl)picolinamide], the inhibition at 0.1 µM was 0% and the inhibition at 1 µM is 57%.

As for `Cn1cc2cc(NC(=O)c3coc(-c4cccc(N)n4)n3)c(N3CCCCC3)cc2n1` [Example 41, 2-(6-aminopyridin-2-yl)-N-(2-methyl-6-(piperidin-1-yl)-2H-indazol-5-yl)oxazole-4-carboxamide], the inhibition at 0.1 µM was 96% and the inhibition at 1 µM was found to be 97%.

Take `Cn1cc2cc(NC(=O)c3coc(-c4cccc(N)n4)n3)c(N3CCOCC3)cc2n1` [Example 42, 2-(6-aminopyridin-2-yl)-N-(2-methyl-6-morpholino-2H-indazol-5-yl)oxazole-4-carboxamide]: the inhibition at 0.1 µM came to 86% and the inhibition at 1 µM amounted to 97%.

In the case of `Cn1cc2cc(NC(=O)c3cccc(-c4ccnc(N)c4)n3)c(N3CCCCC3)cc2n1` [Example 43, 2′-amino-N-(2-methyl-6-(piperidin-1-yl)-2H-indazol-5-yl)-[2,4′-bipyridine]-6-carboxamide hydrochloride], the inhibition at 0.1 µM stood at 97% and the inhibition at 1 µM worked out at 96%.

As to `Cn1cc2cc(NC(=O)c3cccc(-c4ccc(N)nc4)n3)c(N3CCCCC3)cc2n1` [Example 44, 6′-amino-N-(2-methyl-6-(piperidin-1-yl)-2H-indazol-5-yl)-[2,3′-bipyridine]-6-carboxamide], the inhibition at 0.1 µM was 98% and the inhibition at 1 µM stood at 97%.

Regarding `COc1ccc(C(=O)Nc2cc3cn(C)nc3cc2N2CCCCC2)nc1-c1ccnc(N)c1` [Example 45, 2′-amino-3-methoxy-N-(2-methyl-6-(piperidin-1-yl)-2H-indazol-5-yl)-[2,4′-bipyridine]-6-carboxamide], the inhibition at 0.1 µM is 9% and the inhibition at 1 µM worked out at 27%.

In the case of `Cn1cc2cc(NC(=O)c3cccc(-c4cccc(N)n4)n3)c(N3CCCCC3)cc2n1` [Example 46, 6′-amino-N-(2-methyl-6-(piperidin-1-yl)-2H-indazol-5-yl)-[2,2′-bipyridine]-6-carboxamide], the inhibition at 0.1 µM stood at 93% and the inhibition at 1 µM is 96%.

Take `Cn1cc2cc(NC(=O)c3cccc(-c4ccnc(N)n4)n3)c(C3CC3)cc2n1` [Example 47, 6-(2-aminopyrimidin-4-yl)-N-(6-cyclopropyl-2-methyl-2H-indazol-5-yl)picolinamide]: the inhibition at 0.1 µM turned out to be 77% and the inhibition at 1 µM came to 95%.

`Cn1cc2cc(NC(=O)c3cccc(-c4ccc(N)nc4)n3)c(C3CC3)cc2n1` [Example 48, 6′-amino-N-(6-cyclopropyl-2-methyl-2H-indazol-5-yl)-[2,3′-bipyridine]-6-carboxamide]: the inhibition at 0.1 µM came out at 96% and the inhibition at 1 µM was found to be 98%.
